Measured values taken from US20220280663A1, “[…] TARGETED […] ACTIVE SUBSTANCE OR LABEL […] SYSTEM” (CELLIS AG, priority 2016, published 2022).

Assays:
CD45^+ leukocyte cell = assay: Uptake and storage of iron binding proteins by CD45+ leukocyte cells; assay type: cell-based; conditions: incubation 1-4 hours in protein solution (ferritin 0.8 mg/ml; haemoglobin, transferrin 0.1 mg/ml), standard culture conditions
Protocol: Obtained cells are incubated in ferritin solution for a time and at the concentration sufficient to ensure proper ratio of ferritin/cell for their full load and also to ensure proper drug content to obtain therapeutic effect or contrast for proper imaging. The time and concentration may vary depending on the number of molecules encapsulated/adsorbed into the ferritin cage, status of cell activation, condition and number of their intended administration.
For example, to ensure proper load with ferritins, cells are incubated for 1-4 hours in ferritin solution 0.8 mg/ml in standard culture conditions. The frame of ferritin concentration may vary at least between 0.01 and 4 mg/ml as well as incubation time (5 min-6 hours or more). Adjusting time and concentration of ferritin load to cells, the influence of ferritin and treatment conditions on cell viability should be minded.
Obtained cells are incubated in haemoglobin solution for a time and at the concentration sufficient to ensure proper ratio of haemoglobin/cell for their full load and also to ensure proper drug content to obtain therapeutic effect or contrast for proper imaging. The time and concentration may vary depending on the number of molecules linked with the haemoglobin molecule, status of cell activation, condition and number of their intended administration. […]

cancer cells = assay: Transfer of iron binding proteins from loaded leukocytes to co-cultured cancer cells; assay type: cell-based; conditions: for transport to cancer cells from granulocytes: loaded granulocytes (FIG. 15); for transport to cancer cells from lymphocytes: loaded lymphocytes (FIG. 16); for transport to cancer cells from macrophages: loaded macrophages, mouse mammary, colon, canine mammary, human breast, pancreatic, bladder cancer cells; for transport to cancer cells from monocytes: loaded monocytes (FIG. 14)
Text: However, in case of cancer cells the ratio of both cell types is crucial. The more macrophages the better and faster the transport is. The most efficient transfer to the cancer cells was observed when ratio of macrophages to cancer cells was 1:1 or more.
This transfer of compounds conjugated with anticancer drugs made the effect inducing apoptosis in cancer cells (FIG. 6, 13).
However, the ratio of both cell types is important. The more monocytes the better and faster the transport is. The most efficient transfer to the cancer cells was observed when ratio of monocytes to cancer cells was 1:1 or more.
However, the ratio of both cell types is crucial. The more granulocytes the better and faster the transport is. The most efficient transfer to the cancer cells was observed when ratio of granulocytes to cancer cells was 1:1 or more.
However, the ratio of both cell types is crucial. The more lymphocytes the better and faster the transport is. The most efficient transfer to the cancer cells was observed when ratio of lymphocytes to cancer cells was 1:1 or more.

Row | Substance | uptake of iron binding protein by cells (CD45^+ leukocyte cell) | transport to cancer cells from granulocytes (cancer cells) | transport to cancer cells from lymphocytes (cancer cells) | transport to cancer cells from macrophages (cancer cells) | transport to cancer cells from monocytes (cancer cells)
1 | haemoglobins: human haemoglobin prepared from fresh red cells (SEQ ID NO: 18 or 22) | very easily uptake | very easily transport | very easily transport | very easily transport | very easily transport
2 | transferrins: human holo-transferrin purified from serum (SEQ ID NO: 28) | very easily uptake | very easily transport | very easily transport | very easily transport | very easily transport
